In ChEMBL document CHEMBL1201862, “PubChem BioAssay data set” (2004):
The source made the active and inactive calls.

Key:
Bcl-2-related protein A1 = target: T1, Bcl-2-related protein A1 (Mus musculus, UniProt Q07440); type: functional;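 further: confirmatory dose–response counterscreen on Bfl-1, used to check hits from a UBC13 polyubiquitin inhibitor campaign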
T1 sequence (Q07440 whole entry): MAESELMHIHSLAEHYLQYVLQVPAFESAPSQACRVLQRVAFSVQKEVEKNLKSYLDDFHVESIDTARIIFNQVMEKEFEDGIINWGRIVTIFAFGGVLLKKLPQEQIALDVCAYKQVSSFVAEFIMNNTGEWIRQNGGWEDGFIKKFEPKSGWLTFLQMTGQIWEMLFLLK

[1] = target: T2, Ubiquitin-conjugating enzyme E2 N (Homo sapiens, UniProt P61088); type: functional
T2 sequence (P61088 whole entry): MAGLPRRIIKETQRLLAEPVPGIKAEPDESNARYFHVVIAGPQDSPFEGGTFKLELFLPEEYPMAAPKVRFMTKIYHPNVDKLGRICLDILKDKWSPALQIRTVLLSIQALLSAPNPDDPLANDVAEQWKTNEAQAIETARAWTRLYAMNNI

[2] = test system: Streptococcus sp. 'group A'; test: growth inhibition of control SK(-) GAS strain, dose response, counter-screen for streptokinase expression inhibitor project, luminescence, kanamycin, BacTiterGlo, confirmation (AID 1900); type: functional, organism-based
[3] = target: T2, Ubiquitin-conjugating enzyme E2 N; type: functional; remark: listed apart in the source
Streptokinase A = target: T3, Streptokinase A (Streptococcus pyogenes serotype M1, UniProt P10520); test: S. pyogenes streptokinase expression inhibitors, potency, dose response, plasminogen activation absorbance, OD405 (AID 1914); type: functional, Streptococcus pyogenes M1 GAS;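 further: secreted streptokinase activity via plasminogen activation per viability signal from cell pellet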
T3 sequence (P10520 whole entry): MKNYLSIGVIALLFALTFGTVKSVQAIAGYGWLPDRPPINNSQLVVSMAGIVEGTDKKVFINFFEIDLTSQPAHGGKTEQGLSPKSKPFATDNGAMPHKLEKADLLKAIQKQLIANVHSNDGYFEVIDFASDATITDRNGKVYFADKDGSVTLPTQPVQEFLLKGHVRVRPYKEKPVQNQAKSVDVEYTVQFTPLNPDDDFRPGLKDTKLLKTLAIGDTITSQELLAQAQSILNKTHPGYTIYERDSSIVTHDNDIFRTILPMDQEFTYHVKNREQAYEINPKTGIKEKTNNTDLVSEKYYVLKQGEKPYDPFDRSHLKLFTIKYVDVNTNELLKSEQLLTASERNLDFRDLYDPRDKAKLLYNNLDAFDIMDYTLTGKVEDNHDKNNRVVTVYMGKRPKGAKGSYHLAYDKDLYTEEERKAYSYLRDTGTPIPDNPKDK

[4] = target: T4, Replicative DNA helicase DnaB (Mycobacterium tuberculosis, UniProt P9WMR3); test: DnaB intein splicing inhibitors, dose response, biochemical, cell-free fluorescence (AID 449749); type: functional
T4 sequence (P9WMR3 whole entry): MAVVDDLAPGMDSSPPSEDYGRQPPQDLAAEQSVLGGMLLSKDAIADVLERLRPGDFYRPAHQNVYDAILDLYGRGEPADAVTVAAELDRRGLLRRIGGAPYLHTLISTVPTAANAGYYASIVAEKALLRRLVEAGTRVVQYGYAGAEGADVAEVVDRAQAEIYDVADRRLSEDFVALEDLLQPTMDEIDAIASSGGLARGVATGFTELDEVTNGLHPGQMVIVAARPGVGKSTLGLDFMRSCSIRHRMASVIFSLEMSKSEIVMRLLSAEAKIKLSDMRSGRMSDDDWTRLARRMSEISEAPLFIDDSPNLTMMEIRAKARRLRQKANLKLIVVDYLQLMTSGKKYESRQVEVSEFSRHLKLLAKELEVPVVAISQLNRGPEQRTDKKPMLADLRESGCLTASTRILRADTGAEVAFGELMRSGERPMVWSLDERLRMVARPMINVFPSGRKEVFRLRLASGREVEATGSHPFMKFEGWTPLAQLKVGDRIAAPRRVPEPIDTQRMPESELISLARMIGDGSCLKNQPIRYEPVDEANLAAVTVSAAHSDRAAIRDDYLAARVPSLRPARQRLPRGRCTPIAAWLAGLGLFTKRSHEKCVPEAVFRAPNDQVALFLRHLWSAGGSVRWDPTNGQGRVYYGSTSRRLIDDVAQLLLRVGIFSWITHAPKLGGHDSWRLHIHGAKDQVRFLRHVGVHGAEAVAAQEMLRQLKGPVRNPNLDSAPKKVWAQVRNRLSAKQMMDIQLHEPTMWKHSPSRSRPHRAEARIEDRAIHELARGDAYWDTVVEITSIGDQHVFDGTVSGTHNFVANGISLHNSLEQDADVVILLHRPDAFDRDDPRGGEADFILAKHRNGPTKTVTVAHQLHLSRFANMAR

Streptococcus = test: Group A Streptococcus viability loss, dose response, counter-screen for streptokinase expression inhibitor project, luminescence, BacTiterGlo (AID 1915); type: functional, organism-based;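 further: potency for reduction of bacterial viability or growth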
Protein RecA = target: T5, Protein RecA (Mycobacterium tuberculosis, UniProt P9WHJ3); test: Fluorescence Cell-Free Homogeneous Dose Retest to Identify Inhibitors of RecA-Intein Splicing Activity. [Related pubchem assays (depositor defined):AID2097, AID2223, AID489010, AID492950]; type: functional
T5 sequence (P9WHJ3 whole entry): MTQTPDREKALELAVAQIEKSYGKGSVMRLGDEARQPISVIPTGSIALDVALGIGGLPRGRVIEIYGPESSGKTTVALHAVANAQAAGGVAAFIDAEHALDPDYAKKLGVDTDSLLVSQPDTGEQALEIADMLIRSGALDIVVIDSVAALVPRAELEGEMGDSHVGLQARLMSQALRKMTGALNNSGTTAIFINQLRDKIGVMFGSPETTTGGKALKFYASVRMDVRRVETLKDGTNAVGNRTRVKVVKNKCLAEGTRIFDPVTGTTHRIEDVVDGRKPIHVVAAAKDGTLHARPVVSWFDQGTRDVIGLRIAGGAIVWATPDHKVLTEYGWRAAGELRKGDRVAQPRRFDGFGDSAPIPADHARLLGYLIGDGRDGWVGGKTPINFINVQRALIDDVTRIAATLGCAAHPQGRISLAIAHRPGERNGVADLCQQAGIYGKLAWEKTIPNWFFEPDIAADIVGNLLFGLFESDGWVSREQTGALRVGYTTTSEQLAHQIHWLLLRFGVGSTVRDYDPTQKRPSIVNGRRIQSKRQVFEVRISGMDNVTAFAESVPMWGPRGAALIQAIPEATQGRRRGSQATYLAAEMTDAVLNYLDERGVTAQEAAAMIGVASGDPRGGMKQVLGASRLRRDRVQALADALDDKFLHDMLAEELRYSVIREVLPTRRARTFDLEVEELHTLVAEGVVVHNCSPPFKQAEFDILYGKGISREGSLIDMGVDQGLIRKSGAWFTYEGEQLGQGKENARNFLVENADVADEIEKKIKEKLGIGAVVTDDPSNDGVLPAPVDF

| SMILES | IC50 (Bcl-2-related protein A1) | IC50 [1] | EC50 [2] | IC50 [3] | EC50 (Streptokinase A) | AC50 [4] | EC50 (Streptococcus) | EC50 (Protein RecA) |
| --- | --- | --- | --- | --- | --- | --- | --- | --- |
| CCCCCCCCCC[N+](C)(C)CC/C=C1/c2ccccc2Sc2ccc(Cl)cc21 | 8.08 µM (active) | 3.77 µM (active) | 1.75 µM (active) | 4.61 µM (active) | 6.63 µM (active) | > 380 µM (inconclusive) | 5.62 µM (active) | 5.8 µM (active) |
| COc1cc(/C=C/c2cc[n+](C)cc2)ccc1OCC(=O)Nc1ccc(Cl)c(Cl)c1 | > 20 µM (inactive) | 7.74 µM (active) | 12.7 µM (active) | 7.13 µM (active) | > 150 µM (not active) | > 380 µM (inactive) | 12.9 µM (active) | 17.2 µM (active) |
| O=C(NCCc1ccccc1)C(c1cccs1)N(C(=O)CCl)c1ccc(Cl)cc1 (stereo not drawn) | – | – | – | – | – | 1.49 µM (active) | – | 0.233 µM (active) |
